Source: article PMC9696794, “Synthesis and Antimicrobial Activity of Short Analogues of the Marine Antimicrobial Peptide Turgencin A: Effects of SAR Optimizations, Cys-Cys Cyclization and Lipopeptide Modifications” (International Journal of Molecular Sciences, 2022)
In brackets after ≈: the same amount, converted by molar mass. Read-outs that look alike come from different tables or passages of the source. Where a SMILES comes first, the peptide text is derived from it. Bridges are numbered along the chain shown (N, C = ends). The star is where a group is joined. Decanoyl = CCCCCCCCCC(=O)*

Columns and labels:
[1] = test system: E. coli NR698 (outer membrane permeable mutant, imp4213); assay: microbe, parasite or virus in culture; settings: for MIC: Escherichia coli, read-out: MIC E. coli NR698 (mutant)
Experimental: (§1) All cyclic and linear peptides were screened for antibacterial activity against four Gram-positive strains: B. subtilis (Bs, ATCC 23857), C. glutamicum (Cg, ATCC 13032), S. aureus (Sa, ATCC 9144) and S. epidermidis RP62A (Se, ATCC 35984), and two Gram-negative strains: E. coli (Ec, ATCC 25922) and P. aeruginosa (Pa, ATCC 27853). The activity was assessed using a broth microdilution assay according to a modified CLSI-based method. Briefly, overnight bacterial cultures were grown in Mueller–Hinton (MH) broth medium (Difco Laboratories, Detroit, MI, USA) for 2 h at room temperature. The optical density (OD600) was measured, and the bacterial suspensions were adjusted to 2.5–3 × 10^4 CFU/mL in MH medium. The bacterial suspension (50 µL) was distributed in 96-well plates (Nunc, Roskilde, Denmark) preloaded with two-fold dilution series (256 to 1 µg/mL) of peptide solutions (50 µL), giving a final well volume of 100 µL. The microplates were incubated in an EnVision 2103 microplate reader (PerkinElmer, Llantrisant, UK) at 35 °C, with OD595 recorded every hour for 24 h. MIC was defined as the lowest concentration of peptides showing an optical density less than 10% of the negative (growth) control, consisting of bacterial suspension and water. Polymyxin B sulfate (Sigma-Aldrich, St. Louis, MO, USA) and chlorhexidine acetate (CHX, Fresenius Kabi, Halden, Norway), both with concentrations ranging from 12.5 to 0.09 μg/mL, served as positive (growth inhibition) controls. All peptides were tested in triplicate.
(§2) MIC values were determined for all cyclic peptides against two E. coli strains: wild type (WT) MC4100 and the hyperpermeable variant NR698, having a deficient outer membrane. The NR698 strain, containing lptD4213/imp4213 mutation, was kindly provided by M. Grabowicz (Emory University School of Medicine, Rollins Research Center, Atlanta, GA, USA). The assay was performed in the same way as previously described for the antibacterial MIC assay.

[2] = test system: E. coli MC4100 (wild type, WT); assay: microbe, parasite or virus in culture; settings: Escherichia coli, read-out: MIC E. coli MC4100 (WT)
Experimental: as §1, §2

[3] = test system: E. coli (Ec, ATCC 25922); assay: microbe, parasite or virus in culture; type: cell-based, Escherichia coli; settings: for MIC: Escherichia coli; for Antimicrobial Activity (MIC) Gram − Ec: ATCC 25922, 24 h
Experimental: as §1

[4] = test system: fungi (A. pullulans, C. albicans, Rhodotorula sp.); assay: Antifungal MIC assay, all fungi together (range or geometric mean); type: cell-based; settings: Table S3; MIC >128 set to 128
Experimental: (§3) The synthesized peptides were screened for antifungal activity against the molds A. pullulans (Ap) and Rhodotorula sp. (Rh) (both obtained from Professor Arne Tronsmo, The Norwegian University of Life Sciences, Ås, Norway) and the yeast C. albicans (Ca, ATCC 10231) as previously described. In short, fungal spores were grown in potato dextrose broth media (Difco) containing 2% D(+)-glucose (Merck, Darmstadt, Germany) at 25–30 °C while shaking at 200 rpm overnight. The cultures were diluted with a dextrose media containing glucose to a concentration of approx. 4 × 10^5 spores/mL. Aliquots of the cultures (50 µL) were transferred to 96 well microtiter plates preloaded with the synthetic peptides (50 µL) in two-fold serial dilutions (256 to 1 µg/mL). Polymyxin B and CHX (both with concentrations ranging from 12.5 to 0.09 μg/mL) served as positive antibiotic controls. The microtiter plates containing the fungal spores and the test peptides were incubated at room temperature for 48 h and OD600 was recorded using a Synergy H1 Hybrid microplate reader system (BioTek, Winooski, VT, USA). MIC was defined as the lowest peptide concentration showing an optical density less than 10% of the negative (growth) control. All experiments were performed in triplicate.

[5] = test system: S. aureus (Sa, ATCC 9144); assay: microbe, parasite or virus in culture; type: cell-based, Staphylococcus aureus; settings: ATCC 9144, 24 h
Experimental: as §1

[6] = test system: all bacterial strains; assay: Antibacterial MIC assay, all bacterial strains together (range or geometric mean); type: cell-based; settings: for GM (geometric mean of the MIC values against all bacterial strains): Table 1, six bacterial strains; for GM of MIC Tot. bact.: Table S3, all bacterial test strains, MIC >256 set to 256
Experimental: The selectivity index (SI) of the peptides towards bacteria over eukaryotic cells was calculated using the geometric mean (GM) of the MIC values against all bacterial test strains, according to the method by Orlov et al.. The SI for each peptide was determined as the ratio of the RBC-EC50 value by the corresponding GM value. Larger SI values indicate greater selectivity for microbial cells. […] In general, the SI was higher against the Gram-positive bacteral strains than the Gram-negative strains. (Table S3). Overall, peptides displaying EC50 < 100 µg/mL were considered too haemolytic to be of interest for further exploration.
as §1

[7] = test system: B. subtilis (Bs, ATCC 23857); assay: microbe, parasite or virus in culture; type: cell-based, Bacillus subtilis; settings: ATCC 23857, 24 h
Experimental: as §1

[8] = test system: P. aeruginosa (Pa, ATCC 27853); assay: microbe, parasite or virus in culture; type: cell-based, Pseudomonas aeruginosa; settings: ATCC 27853, 24 h
Experimental: as §1

[9] = test system: C. albicans (Ca, ATCC 10231); assay: microbe, parasite or virus in culture; type: cell-based, Candida albicans; settings: ATCC 10231, 48 h
Experimental: as §3

[10] = test system: Gram-negative bacterial strains (E. coli and P. aeruginosa); assay: Antibacterial MIC assay, Gram-negative strains together (range or geometric mean); type: cell-based; settings: Table S3; MIC >256 set to 256
Experimental: as §1

[11] = test system: Gram-positive bacterial strains; settings: for GM of MIC G+: Table S3, MIC >256 set to 256
Experimental: as §1

[12] = test system: C. glutamicum (Cg, ATCC 13032); assay: microbe, parasite or virus in culture; type: cell-based, Corynebacterium glutamicum; settings: ATCC 13032, 24 h
Experimental: as §1

[13] = test system: A. pullulans (Ap); assay: microbe, parasite or virus in culture; type: cell-based, Aurobasidium pollulans; settings: 48 h
Experimental: as §3

[14] = test system: Rhodotorula sp. (Rh); assay: microbe, parasite or virus in culture; type: cell-based; settings: 48 h
Experimental: as §3

[15] = test system: S. epidermidis RP62A (Se, ATCC 35984); assay: microbe, parasite or virus in culture; type: cell-based, Staphylococcus epidermidis; settings: ATCC 35984, 24 h
Experimental: as §1

[16] = test system: human red blood cells (RBC); assay: Haemolytic activity assay; type: cell-based
Experimental: The synthetized lipopeptides were screened for haemolytic activity against human red blood cells (RBC), in concentrations ranging from 500 to 3.9 μM, following a previously described protocol. In brief, haemolysis was determined using a heparinizied (10 IU/mL) fraction of freshly drawn human blood. A second fraction of blood, which was collected in test tubes containing ethylenediaminetetraacetic acid (EDTA, Vacutest, KIMA, Arzergrande, Italy), was used for determination of the hematocrit (hct). Plasma was removed from heparinized blood by washing three times with prewarmed phosphate-buffered saline (PBS) before being adjusted to a hematocrit of 4%. Peptides dissolved in dimethyl sulfoxide (DMSO) were further diluted with PBS to a final DMSO content of ≤1%. Triton X-100 (Sigma-Aldrich, St. Louis, MO, USA), used at a final concentration of 0.1%, served as a positive control for 100% haemolysis, whereas 1% DMSO in PBS buffer served as a negative control where no toxicity was detected. Duplicates of test solutions and erythrocytes, with 1% hct final concentration, were prepared in a 96-well polypropylene V-bottom plate (Nunc, Fischer scientific, Oslo, Norway). They were incubated under agitation at 37 °C and 800 rpm for 1 h. After centrifugation (5 min, 3000× g), 100 µL from each well were transferred to a flat-bottomed 96-well plate and absorbance was measured at 545 nm with a microplate reader (SpectraMax 190, Molecular Devices, San Jose, CA, USA). After subtracting PBS background, the percentage of haemolysis was calculated as the ratio of the absorbance in the peptide-treated and surfactant-treated samples. Three independent experiments were performed, and EC50 (the concentration giving 50% haemolysis) values are presented as averages.

[17] = ATCC25922, Table 2, laboratory strain, read-out: MIC E. coli ATCC 25922 (from Table 1)

## CN[C@H](CC(C)C)C(=O)N[C@H]1C(=O)N[C@@H](CC(N)=O)C(=O)N[C@H]2C(=O)N[C@H]3C(=O)N[C@H](C(=O)N[C@H](C(=O)O)c4cc(O)cc(O)c4-c4cc3ccc4O)[C@H](O)c3ccc(c(Cl)c3)Oc3cc2cc(c3O[C@@H]2O[C@H](CO)[C@@H](O)[C@H](O)[C@H]2O[C@H]2C[C@](C)(N)[C@H](O)[C@H](C)O2)Oc2ccc(cc2Cl)[C@H]1O [Vancomycin, reference compound]
[1]
  MIC: 0.3 µg/mL (≈ 0.207 µM)
[2]
  MIC: 64 µg/mL (≈ 44.2 µM)
[3]; ATCC25922, read-out: MIC E. coli ATCC 25922 (from Table 1)
  MIC: 125 µg/mL (≈ 86.3 µM)

## CC(C)C[C@H](NC(=O)[C@H](CCCCN)NC(=O)[C@@H]1CSSC[C@H](N)C(=O)NCC(=O)N[C@@H](CCCCN)C(=O)N[C@@H](CCCCN)C(=O)N2CCC[C@H]2C(=O)NCC(=O)NCC(=O)N[C@@H](Cc2c[nH]c3ccccc23)C(=O)N[C@@H](CCCCN)C(=O)N1)C(N)=O [cTurg-1] (H-CGKKPGGWKCKL-NH2; disulfide 1-10; N-terminus assumed)
[4]
  GM of MIC Fungi: 64 µg/mL
[5]
  Antimicrobial Activity (MIC) Gram + Sa: >256 µg/mL
[6]
  GM (geometric mean of the MIC values against all bacterial strains): 161 µg/mL
  GM of MIC Tot. bact.: 161 µg/mL
[6]; span over the strains
  MIC against all bacterial strains: ≥ 256 µg/mL
[7]
  Antimicrobial Activity (MIC) Gram + Bs: 256 µg/mL
[8]
  Antimicrobial Activity (MIC) Gram − Pa: >256 µg/mL
[9]
  Antimicrobial Activity (MIC) Fungi Ca: 128 µg/mL
[10]
  GM of MIC G-: 256 µg/mL
[11]
  GM of MIC G+: 128 µg/mL
[12]
  Antimicrobial Activity (MIC) Gram + Cg: 16 µg/mL
[13]
  Antimicrobial Activity (MIC) Fungi Ap: 32 µg/mL
[1]; MC4100 NR698 imp4213, deficient outer membrane
  MIC E. coli NR698 (mutant): 64 µg/mL (≈ 49.2 µM)
[14]
  Antimicrobial Activity (MIC) Fungi Rh: 64 µg/mL
[3]
  Antimicrobial Activity (MIC) Gram − Ec: >256 µg/mL
[15]
  Antimicrobial Activity (MIC) Gram + Se: >256 µg/mL

## CC1(C)S[C@@H]2[C@H](NC(=O)[C@H](N)c3ccccc3)C(=O)N2[C@H]1C(=O)O [Ampicillin, reference compound]
[2]
  MIC: 8 µg/mL (≈ 22.9 µM)
[3]; [17]
  MIC: 8 µg/mL (≈ 22.9 µM)

## CCCCCCCCCC(=O)N[C@@H](CS)C(=O)NCC(=O)N[C@@H](CCCCN)C(=O)N[C@@H](CCCCN)C(=O)N[C@@H](Cc1c[nH]c2ccccc12)C(=O)N[C@@H](Cc1c[nH]c2ccccc12)C(=O)NCC(=O)N[C@@H](Cc1c[nH]c2ccccc12)C(=O)N[C@@H](CCCCN)C(=O)N[C@@H](CS)C(=O)N[C@@H](CCCCN)C(=O)N[C@@H](CC(C)C)C(N)=O [Peptide C10-Turg-2, C10- CGKKWWGWKC KL-NH2] (Decanoyl-CGKKWWGWKCKL-NH2)
[4]
  GM of MIC Fungi: 40 µg/mL
[5]
  Antimicrobial Activity (MIC) Gram + Sa: 8 µg/mL
[6]
  GM (geometric mean of the MIC values against all bacterial strains): 8 µg/mL
  GM of MIC Tot. bact.: 8 µg/mL
[7]
  Antimicrobial Activity (MIC) Gram + Bs: 8 µg/mL
[8]
  Antimicrobial Activity (MIC) Gram − Pa: 16 µg/mL
[9]
  Antimicrobial Activity (MIC) Fungi Ca: 64 µg/mL
[16]; Table S3, EC50/GM of Gram-negative strains, highest tested concentration used where EC50 above it
  Selectivity index (SI) G-: 6
[16]; Table S3, EC50/GM of Gram-positive strains, highest tested concentration used where EC50 above it
  Selectivity index (SI) G+: 10
[16]; Table S3, EC50/GM of fungi, highest tested concentration used where EC50 above it
  Selectivity index (SI) Fungi: 2
[16]; haemolytic EC50 over GM of MIC against all bacterial strains, Table 1
  SI (selectivity index = EC50/GM): 8
[10]
  GM of MIC G-: 11 µg/mL
[11]; 2 h
  MIC against the Gram-positive bacterial strains: 4 to 8 µg/mL
[11]
  GM of MIC G+: 7 µg/mL
[12]
  Antimicrobial Activity (MIC) Gram + Cg: 4 µg/mL
[13]
  Antimicrobial Activity (MIC) Fungi Ap: 32 µg/mL
[14]
  Antimicrobial Activity (MIC) Fungi Rh: 32 µg/mL
[3]
  Antimicrobial Activity (MIC) Gram − Ec: 8 µg/mL
[15]
  Antimicrobial Activity (MIC) Gram + Se: 8 µg/mL

## O=C(N[C@H](CO)[C@H](O)c1ccc([N+](=O)[O-])cc1)C(Cl)Cl [Chloramphenicol, reference compound]
[1]
  MIC: 3.1 µg/mL (≈ 9.59 µM)
[2]
  MIC: 12.5 µg/mL (≈ 38.7 µM)
[3]; [17]
  MIC: 1.8 µg/mL (≈ 5.57 µM)
